According to patent US20230073781A1, “Systemic administration of peptides for the treatment of spinal cord injury and/or for remyelination” (AXOLTIS PHARMA, priority 2019, published 2023):
Where a SMILES comes first, the peptide text is derived from it. Bridges are numbered along the chain shown (N, C = ends).

What was measured:
[1] = In vitro conversion in rat plasma; assay type: in vitro ADME; settings: preliminary
[2] = Preliminary PK study in rat; assay type: in vivo; settings: slow bolus IV injection of 49 mg/kg of NX210
Procedure: Therefore, NX210 PK in animals is followed by the measurement of its cyclic form NX218. First a preliminary PK study in rat was performed in order to validate the method for detecting NX218 in plasma then translated to monkey by performing a more robust PK study with repeated experiments. All PK studies were performed with NaCl 0.9% as vehicle.

| SMILES | conversion by oxidation in rat plasma [1] | plasma concentration of NX218 over time [2] |
| --- | --- | --- |
| N=C(N)NCCC[C@H](NC(=O)[C@H](CO)NC(=O)[C@H](CS)NC(=O)[C@H](CO)NC(=O)[C@H](CO)NC(=O)[C@H](Cc1c[nH]c2ccccc12)NC(=O)CNC(=O)[C@H](CO)NC(=O)[C@@H](N)Cc1c[nH]c2ccccc12)C(=O)N[C@@H](CO)C(=O)N[C@@H](CS)C(=O)NCC(=O)O [NX210, W-S-G-W-S-S-C-S-R-S-C-G] (H-WSGWSSCSRSCG-OH) | rapidly converted into NX218 | – |
| N=C(N)NCCC[C@@H]1NC(=O)[C@H](CO)NC(=O)[C@@H](NC(=O)[C@H](CO)NC(=O)[C@H](CO)NC(=O)[C@H](Cc2c[nH]c3ccccc23)NC(=O)CNC(=O)[C@H](CO)NC(=O)[C@@H](N)Cc2c[nH]c3ccccc23)CSSC[C@@H](C(=O)NCC(=O)O)NC(=O)[C@H](CO)NC1=O [NX218] (H-WSGWSSCSRSCG-OH; disulfide 7-11) | – | impossible to quantify from 3 hours |
